Experimental data published in PubChem BioAssay (NCI).
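Cultured in 96-well plates, cells were exposed to test compound for 48 hours across five concentrations. At the GI50, growth is halved. The concentration for full growth arrest is given as TGI.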

Key:
Assay in all cases: inhibition of tumour cell growth, NCI panel, 48 h
[1] = test system: BT-549 breast
[2] = test system: HS 578T breast
[3] = test system: TK-10 renal
[4] = test system: OVCAR-8 ovarian
[5] = test system: SW-620 colon
[6] = test system: K-562 leukemia
[7] = test system: HCC-2998 colon
[8] = test system: M14 melanoma
[9] = test system: HCT-116 colon
[10] = test system: MDA-MB-231 breast
[11] = test system: NCI-H23 lung
[12] = test system: DU-145 prostate
[13] = test system: NCI-H226 lung
[14] = test system: HOP-92 NSCLC
[15] = test system: CAKI-1 renal
[16] = test system: MOLT-4 leukemia
[17] = test system: SK-MEL-2 melanoma
[18] = test system: RXF 393 renal
[19] = test system: COLO 205 colon
[20] = test system: OVCAR-4 ovarian
[21] = test system: SNB-19 CNS
[22] = test system: HCT-15 colon
[23] = test system: UO-31 renal
[24] = test system: SF-539 CNS
[25] = test system: HT29 colon
[26] = test system: 786-0 renal
[27] = test system: SK-MEL-28 melanoma
[28] = test system: SF-295 CNS
[29] = test system: MDA-MB-435
[30] = test system: UACC-257 melanoma

Cn1cc(-c2cc(N)n3nc(-c4c[nH]c5ccccc45)cc3n2)c2ccccc21
TGI [1]: 29.8 µM | GI50 [2]: 5.53 µM | TGI [2]: 45.4 µM | GI50 [3]: 2.15 µM | TGI [3]: 7.17 µM | GI50 [4]: 2.66 µM | TGI [4]: 8.25 µM | GI50 [5]: 1.77 µM | TGI [5]: 3.45 µM | GI50 [6]: 2.34 µM | TGI [6]: 6.81 µM | GI50 [7]: 1.79 µM | TGI [7]: 3.34 µM | GI50 [8]: 1.79 µM | TGI [8]: 3.66 µM | GI50 [9]: 1.9 µM | TGI [9]: 3.54 µM | GI50 [10]: 1.9 µM | TGI [10]: 3.47 µM | GI50 [11]: 2.36 µM | TGI [11]: 5.83 µM | GI50 [12]: 3.61 µM | TGI [12]: 13.5 µM | GI50 [13]: 11.4 µM | TGI [13]: 37.2 µM | GI50 [14]: 2.29 µM | TGI [14]: 5.47 µM | GI50 [15]: 1.91 µM | TGI [15]: 4.48 µM | GI50 [16]: 2.5 µM | TGI [16]: 8.28 µM | GI50 [17]: 4.72 µM | TGI [17]: 17.2 µM | GI50 [18]: 1.69 µM | TGI [18]: 3.96 µM | GI50 [19]: 1.72 µM | TGI [19]: 3.35 µM | GI50 [20]: 3.26 µM | TGI [20]: 14.7 µM | GI50 [21]: 3.14 µM | TGI [21]: 11.4 µM | GI50 [22]: 1.64 µM | TGI [22]: 3.3 µM | GI50 [23]: 1.64 µM | TGI [23]: 3.28 µM | GI50 [24]: 1.81 µM | TGI [24]: 3.21 µM | GI50 [25]: 1.69 µM | TGI [25]: 3.23 µM | GI50 [26]: 1.68 µM | TGI [26]: 3.26 µM | GI50 [27]: 1.66 µM | TGI [27]: 3.03 µM | GI50 [28]: 1.78 µM | TGI [28]: 3.4 µM | GI50 [29]: 1.92 µM | TGI [29]: 3.92 µM | GI50 [30]: 1.84 µM | TGI [30]: 3.45 µM
